The source of these data is the PolyMetriX glass transition set.

On to `*C(=O)N1C(=S)N(C(=O)c2ccc3c(c2)C(=O)N(c2ccc(Oc4ccc(N5C(=O)c6ccc(*)cc6C5=O)cc4)cc2)C3=O)C(C)=C(C(=O)OCC)C1c1ccccc1` (repeat unit), for which the glass transition temperature is 155.00 °C. Next, `*C(=O)c1ccc(C(C)(CC)c2ccc(C(=O)N3CCN(*)CC3)cc2)cc1` (repeat unit): 232.00 °C; `*C(=O)c1ccc(Oc2ccc(-c3ccc(Oc4ccc(C(=O)c5ccc6c(c5)C(=O)N(c5ccc(Oc7ccc(N8C(=O)c9ccc(*)cc9C8=O)cc7)cc5)C6=O)cc4)cc3)cc2)cc1` (repeat unit): 233.00 °C. Next, `*C(=O)c1ccc(Oc2ccc(N3C(=O)c4ccc(*)cc4C3=O)cc2)cc1` (repeat unit): 297.00 °C; `*C(=O)c1ccc(Oc2ccc(S(=O)(=O)c3ccc(Oc4ccc(C(=O)c5ccc6c(c5)C(=O)N(c5ccc(Oc7ccc(N8C(=O)c9ccc(*)cc9C8=O)cc7)cc5)C6=O)cc4)cc3)cc2)cc1` (repeat unit): 241.00 °C.

In the case of `*C(=O)c1ccc2c(c1)C(=O)N(c1ccc(Oc3ccc(Oc4ccc(N5C(=O)c6ccc(*)cc6C5=O)cc4C(F)(F)F)cc3)cc1)C2=O` (repeat unit), the glass transition temperature came out at 237.10 °C. Next, `*C(=O)c1ccc2c(c1)C(=O)N(c1ccc(Oc3cccc(-c4cc(-c5ccccc5)cc(-c5cccc(Oc6ccc(N7C(=O)c8ccc(*)cc8C7=O)cc6)c5)n4)c3)cc1)C2=O` (repeat unit): 260.00 °C; `*C(=O)c1cccc(C(=O)c2ccc3c(c2)C(=O)N(c2ccc(Oc4ccc(S(=O)(=O)c5ccc(Oc6ccc(N7C(=O)c8ccc(*)cc8C7=O)cc6)cc5)cc4)cc2)C3=O)c1` (repeat unit): 249.00 °C.

The compound `*CCCCCCCN1C(=O)c2ccc(-c3ccc(-c4ccc5c(c4)C(=O)N(*)C5=O)cc3)cc2C1=O` (repeat unit) registered a glass transition temperature of 135.00 °C.

With `*CCCCOC(=O)c1ccc(C(C)(C)c2ccc(C(=O)O*)cc2)cc1` (repeat unit), the glass transition temperature came out at 44.00 °C. Next, `*CCCCOC(=O)c1ccc([Si](C)(C)c2ccc(C(=O)O*)cc2)cc1` (repeat unit): 42.00 °C; `*Nc1ccc(-c2ccc(NC(=O)c3ccc(NC(=O)c4ccc([Si](C)(C)c5ccc(C(=O)Nc6ccc(C(*)=O)cc6)cc5)cc4)cc3)cc2)cc1` (repeat unit): 320.00 °C. `*Nc1ccc(C(c2ccc(NC(=O)c3ccc(-c4ccc(C(*)=O)c(C)c4)cc3C)cc2)(C(F)(F)F)C(F)(F)F)cc1` (repeat unit) had a glass transition temperature of 289.00 °C. The value for `*Nc1ccc(NC(=O)c2ccc(NC(=O)c3ccc([Si](C)(C)c4ccc(C(=O)Nc5ccc(C(*)=O)cc5)cc4)cc3)cc2)cc1` (repeat unit) was 338.00 °C. The value for `*Nc1cccc(NC(=O)c2ccc(NC(=O)c3ccc([Si](C)(C)c4ccc(C(=O)Nc5ccc(C(*)=O)cc5)cc4)cc3)cc2)c1` (repeat unit) was 303.00 °C; that for `*Oc1ccc(-c2ccc(OC(=O)c3cc(/N=N/c4ccc(OCC)cc4)ccc3-c3ccc(/N=N/c4ccc(OCC)cc4)cc3C(*)=O)cc2)cc1` (repeat unit) was 165.00 °C. Next, `*Oc1ccc(/N=C/c2ccc(N(c3ccccc3)c3ccc(/C=N/c4ccc(*)cc4)cc3)cc2)cc1` (repeat unit): 162.00 °C. Consider `*Oc1ccc(N(CC)c2ccc(/C=C(\C#N)C(=O)NC3CCCCC3NC(=O)/C(C#N)=C/c3ccc(N(CC)c4ccc(*)cc4)cc3)cc2)cc1` (repeat unit), for which the glass transition temperature came out at 235.00 °C. As to `*Oc1ccc(NC(=O)c2ccc(-c3ccc(C(=O)Nc4ccc(Oc5ccc(C(C)(C)c6ccc(*)cc6)cc5)cc4)c(C)c3)cc2C)cc1` (repeat unit), the glass transition temperature was found to be 230.00 °C. The value for `*Oc1ccc(NC(=O)c2ccc([Si](C)(C)c3ccc(C(*)=O)cc3)cc2)cc1` (repeat unit) was 220.00 °C; that for `*Oc1cccc(Oc2ccc(NC(=O)c3ccc(-c4ccc(C(=O)Nc5ccc(*)cc5)c(C)c4)cc3C)cc2)c1` (repeat unit) was 213.00 °C; that for `*c1ccc(-c2cc(C(C)(C)C)c(Oc3ccc(-n4c(=O)c5cc6c(=O)n(*)c(=O)c6cc5c4=O)cc3)c(C(C)(C)C)c2)cc1` (repeat unit) was 398.50 °C. The value for `*c1ccc(-c2cc(C(C)(C)C)c(Oc3ccc(-n4c(=O)c5cc6c(=O)n(*)c(=O)c6cc5c4=O)cc3C(F)(F)F)c(C(C)(C)C)c2)cc1` (repeat unit) was 420.00 °C; that for `*c1ccc(-c2cc(CCCCCCCC)c(-c3ccc(-c4sc(*)cc4CCCCCCCC)cc3)s2)cn1` (repeat unit) was 16.20 °C.

Turning to `*c1ccc(-c2ccc(-c3cc(CCCCCCCC)c(-c4ccc(-c5sc(*)cc5CCCCCCCC)cc4)s3)cc2)cc1` (repeat unit), the glass transition temperature amounted to 0.60 °C. Turning to `*c1ccc(-c2ccc(N3C(=O)c4ccc(Oc5ccc6c(c5)C(=O)N(*)C6=O)cc4C3=O)cc2C)c(C)c1` (repeat unit), the glass transition temperature was 325.00 °C. For the compound `*c1ccc(-c2ccc([Si](*)(C)C)s2)s1` (repeat unit), the glass transition temperature turned out to be 45.00 °C. Consider `*c1ccc(-c2ccc([Si](CCCC)(CCCC)[Si](*)(CCCC)CCCC)s2)s1` (repeat unit), for which the glass transition temperature is -20.00 °C.

With `*c1ccc(-c2ccc3c(c2)C(CCCCCC)(CCCCCC)c2cc(*)ccc2-3)cc1` (repeat unit), the glass transition temperature came out at 106.20 °C.

Take `*c1ccc(-c2ccc3c(c2)C(CCCCCCBr)(CCCCCCBr)c2cc(*)ccc2-3)cc1` (repeat unit): the glass transition temperature was 122.00 °C.

`*c1ccc(-c2cnc3cc(-c4ccc5nc(*)cnc5c4)ccc3n2)cc1` (repeat unit) came in with a glass transition temperature of 350.00 °C.

Take `*c1ccc(-c2cnc3cc(Oc4ccc5nc(*)cnc5c4)ccc3n2)cc1` (repeat unit): the glass transition temperature amounted to 306.00 °C.

In turn, `*c1ccc(-c2cnc3ccc(-c4ccc5nc(*)cnc5c4)cc3n2)cc1` (repeat unit) registered a glass transition temperature of 376.00 °C.

Regarding `*c1ccc(-c2cnc3ccc(-c4ccc5ncc(*)nc5c4)cc3n2)cc1` (repeat unit), the glass transition temperature is 376.00 °C. For the compound `*c1ccc(-c2cnc3ccc(Oc4ccc5ncc(*)nc5c4)cc3n2)cc1` (repeat unit), the glass transition temperature was 306.00 °C. `*c1ccc(-c2nc3cc(-c4ccc5nc(-c6ccccc6)c(-c6ccc(-n7c(=O)c8cc9c(=O)n(*)c(=O)c9cc8c7=O)cc6)nc5c4)ccc3nc2-c2ccccc2)cc1` (repeat unit): the glass transition temperature was determined as 217.00 °C. Next, `*c1ccc(-c2nc3cc(-c4ccc5nc(-c6ccccc6)c(-c6ccc(N7C(=O)C8OC9C(=O)N(*)C(=O)C9C8C7=O)cc6)nc5c4)ccc3nc2-c2ccccc2)cc1` (repeat unit): 230.00 °C; `*c1ccc(-c2nc3cc(-c4ccc5oc(*)nc5c4)ccc3o2)cc1` (repeat unit): 430.00 °C; `*c1ccc(-c2nc3cc(Oc4ccc5nc(-c6ccccc6)c(-c6ccc(-n7c(=O)c8cc9c(=O)n(*)c(=O)c9cc8c7=O)cc6)nc5c4)ccc3nc2-c2ccccc2)cc1` (repeat unit): 274.00 °C. Next, `*c1ccc(-c2nc3cc4nc(-c5ccccc5)c(*)nc4cc3nc2-c2ccccc2)cc1` (repeat unit): 395.00 °C; `*c1ccc(-c2nc3ccccc3o2)c(*)c1` (repeat unit): 229.00 °C. As to `*c1ccc(-c2nnc(*)o2)c(OCCCCC)c1` (repeat unit), the glass transition temperature was determined as 205.00 °C.

The compound `*c1ccc(-c2sc(-c3cc(CCCC)c(*)s3)cc2CCCC)cc1` (repeat unit) came in with a glass transition temperature of 122.30 °C. The value for `*c1ccc(-c2sc(-c3cc(CCCCCCCCCCCC)c(*)s3)cc2CCCCCCCCCCCC)cc1` (repeat unit) was 59.60 °C. Next, `*c1ccc(-c2sc(-c3cc(SCCCCCCCCCCCC)c(*)s3)cc2SCCCCCCCCCCCC)cc1` (repeat unit): 65.40 °C.

Compound `*c1ccc(-c2sc(-c3ccc(-c4cc(CCCCCCCC)c(*)s4)cc3)cc2CCCCCCCC)cc1` (repeat unit) had a glass transition temperature of -4.00 °C. The value for `*c1ccc(-c2sc(-c3ccc(-c4cc(CCCCCCCCCCCC)c(*)s4)cc3)cc2CCCCCCCCCCCC)cc1` (repeat unit) was -19.20 °C; that for `*c1ccc(-c2sc(-c3ccc(-c4cc(SCCCCCCCC)c(*)s4)cc3)cc2SCCCCCCCC)cc1` (repeat unit) was -38.80 °C; that for `*c1ccc(-c2sc(-c3ccc(-n4c(=O)c5cc6c(=O)n(*)c(=O)c6cc5c4=O)cc3)c(-c3ccccc3)c2-c2ccccc2)cc1` (repeat unit) was 460.00 °C. The value for `*c1ccc(-n2ccc(-c3ccc(-c4ccn(*)n4)cc3)n2)cc1` (repeat unit) was 75.00 °C; that for `*c1ccc(C(c2ccc(-c3nc4ccc(-c5ccc6nc(*)oc6c5)cc4o3)cc2)(C(F)(F)F)C(F)(F)F)cc1` (repeat unit) was 345.00 °C. The value for `*c1ccc(C2(c3ccc(-c4nnc(*)o4)cc3)OC(=O)c3ccccc32)cc1` (repeat unit) was 380.00 °C. Compound `*c1ccc(N/C=N/c2ccc(S(*)(=O)=O)cc2)cc1` (repeat unit) gave a glass transition temperature of 163.00 °C.

`*c1ccc(NC(=O)c2ccc(NC(=O)c3ccc([Si](C)(C)c4ccc(C(=O)Nc5ccc(C(=O)Nc6ccc(-c7sc(*)c(-c8ccccc8)c7-c7ccccc7)cc6)cc5)cc4)cc3)cc2)cc1` (repeat unit) had a glass transition temperature of 337.00 °C. The value for `*c1ccc([Si](c2ccccc2)(c2ccccc2)c2ccc(-c3nnc(-c4ccc(-c5nnc(*)o5)c5ccccc45)o3)cc2)cc1` (repeat unit) was 273.00 °C; that for `*c1ccc2oc(-c3ccc(C(c4ccc(-c5nc6cc(C(*)(C(F)(F)F)C(F)(F)F)ccc6o5)cc4)(C(F)(F)F)C(F)(F)F)cc3)nc2c1` (repeat unit) was 336.00 °C.
